From the kinase profiling compilation of Christmann-Franck et al. (2016)

Tests used:
Assay in all cases: radiometric filter-binding kinase assay, Kinaseprofiler
EPHA1 (human) = EPHA1 (human) (UniProt P21709); conditions: compound 10.0 µM; ATP 45 µM
PAK6 (human) = PAK6 (human) (UniProt Q9NQU5); conditions: ATP 10 µM
PRKX (human) = PRKX (human) (UniProt P51817); conditions: compound 10.0 µM; ATP 200 µM
MARK2 (human) = MARK2 (human) (UniProt Q7KZI7); conditions: compound 10.0 µM; ATP 15 µM
NTRK2 (human) = NTRK2 (human) (UniProt Q16620); conditions: ATP 90 µM
RPS6KA4 KD1 KD2 (human) = RPS6KA4 KD1 KD2 (human) (UniProt O75676); conditions: ATP 45 µM
RPS6KA5 KD1 KD2 (human) = RPS6KA5 KD1 KD2 (human) (UniProt O75582); conditions: compound 10.0 µM; ATP 90 µM
STK24 (human) = STK24 (human) (UniProt Q9Y6E0); conditions: compound 10.0 µM; ATP 15 µM
GCK (human) = GCK (human) (UniProt Q12851); conditions: compound 1.0 µM; ATP 200 µM
MKNK2 (human) = MKNK2 (human) (UniProt Q9HBH9); conditions: ATP 120 µM
PAK4 (human) = PAK4 (human) (UniProt O96013); conditions: compound 10.0 µM; ATP 10 µM
INSR (human) = INSR (human) (UniProt P06213); conditions: compound 10.0 µM; ATP 45 µM
[1] = system: PRKD1 (human), Q15139 [R135A]; conditions: compound 10.0 µM; ATP 45 µM
RPS6KA6 KD1 KD2 (human) = RPS6KA6 KD1 KD2 (human) (UniProt Q9UK32); conditions: compound 1.0 µM; ATP 45 µM
CHEK1 (human) = CHEK1 (human) (UniProt O14757); conditions: compound 10.0 µM; ATP 90 µM
FER (human) = FER (human) (UniProt P16591); conditions: compound 10.0 µM; ATP 70 µM
FLT1 (human) = FLT1 (human) (UniProt P17948); conditions: ATP 200 µM
FYN (human) = FYN (human) (UniProt P06241); conditions: compound 10.0 µM; ATP 70 µM
[2] = molecular target: PRKAA2 PRKAB1 PRKAG1 (human) (UniProt P54619+P54646+Q9Y478); conditions: ATP 45 µM
CDK1 CCNB1 (human) = CDK1 CCNB1 (human) (UniProt P06493+P14635); conditions: compound 10.0 µM; ATP 45 µM
TSSK1B (human) = TSSK1B (human) (UniProt Q9BXA7); conditions: ATP 15 µM
[3] = molecular target: PRKAA1 PRKAB1 PRKAG1 (human) (UniProt P54619+Q13131+Q9Y478); conditions: ATP 45 µM
MAPK1 (human) = MAPK1 (human) (UniProt P28482); conditions: compound 10.0 µM; ATP 155 µM
MELK (human) = MELK (human) (UniProt Q14680); conditions: compound 10.0 µM; ATP 45 µM
MAPK10 (human) = MAPK10 (human) (UniProt P53779); conditions: ATP 10 µM
MAP3K7 (human) = MAP3K7 (human) (UniProt O43318); conditions: ATP 45 µM
PRKD2 (human) = PRKD2 (human) (UniProt Q9BZL6); conditions: compound 10.0 µM; ATP 155 µM
PDPK1 (human) = PDPK1 (human) (UniProt O15530); conditions: ATP 10 µM
FGR (human) = FGR (human) (UniProt P09769); conditions: compound 10.0 µM; ATP 45 µM
DYRK2 (human) = DYRK2 (human) (UniProt Q92630); conditions: compound 10.0 µM; ATP 15 µM
MTOR FKBP1A (human) = MTOR FKBP1A (human) (UniProt P42345+P62942); conditions: ATP 45 µM
SIK1 (human) = SIK1 (human) (UniProt P57059); conditions: ATP 45 µM
ULK2 (human) = ULK2 (human) (UniProt Q8IYT8); conditions: compound 10.0 µM; ATP 15 µM
MAP3K9 (human) = MAP3K9 (human) (UniProt P80192); conditions: compound 10.0 µM; ATP 45 µM
CDK2 CCNA2 (human) = CDK2 CCNA2 (human) (UniProt P24941+P20248); conditions: ATP 45 µM
Chain of CDK2 CCNA2 (human) (P20248 whole entry, looked up, other chains not shown): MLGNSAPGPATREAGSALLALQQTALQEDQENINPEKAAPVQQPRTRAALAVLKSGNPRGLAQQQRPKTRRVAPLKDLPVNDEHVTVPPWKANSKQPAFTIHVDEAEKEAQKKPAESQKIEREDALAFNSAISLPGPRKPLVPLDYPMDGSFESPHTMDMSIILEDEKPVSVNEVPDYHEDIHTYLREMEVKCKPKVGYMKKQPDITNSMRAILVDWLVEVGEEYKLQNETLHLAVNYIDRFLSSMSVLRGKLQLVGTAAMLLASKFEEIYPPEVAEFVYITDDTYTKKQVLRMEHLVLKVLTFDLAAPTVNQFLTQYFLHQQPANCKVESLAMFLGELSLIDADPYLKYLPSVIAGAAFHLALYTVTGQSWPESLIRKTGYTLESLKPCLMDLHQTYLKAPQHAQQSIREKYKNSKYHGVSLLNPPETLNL

Chain of PDPK1 (human) (O15530 whole entry, looked up): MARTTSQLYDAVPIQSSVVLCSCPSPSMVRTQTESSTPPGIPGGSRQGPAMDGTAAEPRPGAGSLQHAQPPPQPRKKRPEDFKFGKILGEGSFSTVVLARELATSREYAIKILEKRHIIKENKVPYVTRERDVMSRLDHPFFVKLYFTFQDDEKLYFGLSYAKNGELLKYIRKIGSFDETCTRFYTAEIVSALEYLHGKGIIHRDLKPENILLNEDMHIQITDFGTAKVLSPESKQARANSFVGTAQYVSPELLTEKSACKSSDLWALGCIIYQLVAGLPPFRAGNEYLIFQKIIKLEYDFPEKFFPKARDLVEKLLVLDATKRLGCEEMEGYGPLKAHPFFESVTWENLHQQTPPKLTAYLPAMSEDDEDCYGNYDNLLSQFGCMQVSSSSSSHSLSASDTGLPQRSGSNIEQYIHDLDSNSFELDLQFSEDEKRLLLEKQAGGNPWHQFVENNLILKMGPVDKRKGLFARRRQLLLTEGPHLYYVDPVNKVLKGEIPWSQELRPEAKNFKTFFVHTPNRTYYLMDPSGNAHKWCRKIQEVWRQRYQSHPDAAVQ
Chain of FLT1 (human) (P17948 whole entry, looked up): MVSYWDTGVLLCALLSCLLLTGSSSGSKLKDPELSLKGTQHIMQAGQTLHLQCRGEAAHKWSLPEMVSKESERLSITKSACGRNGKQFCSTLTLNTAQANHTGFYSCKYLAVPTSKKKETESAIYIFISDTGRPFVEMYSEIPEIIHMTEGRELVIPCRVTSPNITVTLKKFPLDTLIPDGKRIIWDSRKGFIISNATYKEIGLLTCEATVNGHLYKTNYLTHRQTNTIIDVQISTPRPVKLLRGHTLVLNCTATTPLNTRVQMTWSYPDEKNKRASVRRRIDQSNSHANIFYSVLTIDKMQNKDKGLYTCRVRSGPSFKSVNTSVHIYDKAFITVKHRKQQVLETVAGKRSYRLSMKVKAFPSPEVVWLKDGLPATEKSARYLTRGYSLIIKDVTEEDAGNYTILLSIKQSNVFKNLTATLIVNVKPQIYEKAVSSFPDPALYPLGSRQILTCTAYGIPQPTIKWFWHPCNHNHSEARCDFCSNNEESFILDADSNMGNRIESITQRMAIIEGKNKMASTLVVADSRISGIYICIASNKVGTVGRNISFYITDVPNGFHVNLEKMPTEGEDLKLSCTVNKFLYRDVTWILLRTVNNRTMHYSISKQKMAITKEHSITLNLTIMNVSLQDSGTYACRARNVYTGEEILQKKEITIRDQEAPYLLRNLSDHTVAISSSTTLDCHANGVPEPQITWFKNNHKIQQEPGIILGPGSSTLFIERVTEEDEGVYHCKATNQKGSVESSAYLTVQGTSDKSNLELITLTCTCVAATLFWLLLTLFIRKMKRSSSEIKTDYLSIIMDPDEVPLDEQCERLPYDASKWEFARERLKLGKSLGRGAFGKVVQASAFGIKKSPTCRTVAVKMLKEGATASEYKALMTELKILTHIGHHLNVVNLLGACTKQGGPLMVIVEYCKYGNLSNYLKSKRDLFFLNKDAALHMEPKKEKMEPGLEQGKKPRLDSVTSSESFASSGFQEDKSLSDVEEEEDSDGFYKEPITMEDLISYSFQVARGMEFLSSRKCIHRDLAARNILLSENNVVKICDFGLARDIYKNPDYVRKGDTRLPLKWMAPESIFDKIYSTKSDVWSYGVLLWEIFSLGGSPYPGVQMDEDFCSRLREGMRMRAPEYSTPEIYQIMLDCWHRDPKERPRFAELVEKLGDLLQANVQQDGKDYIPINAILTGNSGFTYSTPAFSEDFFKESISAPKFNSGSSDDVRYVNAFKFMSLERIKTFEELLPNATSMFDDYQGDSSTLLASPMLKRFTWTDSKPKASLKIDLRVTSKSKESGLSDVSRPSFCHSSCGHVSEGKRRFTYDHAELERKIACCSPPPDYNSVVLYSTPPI
Chain of PRKAA1 PRKAB1 PRKAG1 (human) (P54619 whole entry, looked up): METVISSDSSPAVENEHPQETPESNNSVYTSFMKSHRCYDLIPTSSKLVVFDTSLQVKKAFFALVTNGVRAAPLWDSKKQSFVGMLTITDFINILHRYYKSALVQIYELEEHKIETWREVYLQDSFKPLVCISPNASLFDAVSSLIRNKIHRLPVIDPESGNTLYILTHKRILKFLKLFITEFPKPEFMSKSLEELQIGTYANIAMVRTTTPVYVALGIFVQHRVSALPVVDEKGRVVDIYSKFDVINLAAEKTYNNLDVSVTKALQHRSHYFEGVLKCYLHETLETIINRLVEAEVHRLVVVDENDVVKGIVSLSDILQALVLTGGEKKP
Chain of PRKAA1 PRKAB1 PRKAG1 (human) (Q13131 whole entry, looked up): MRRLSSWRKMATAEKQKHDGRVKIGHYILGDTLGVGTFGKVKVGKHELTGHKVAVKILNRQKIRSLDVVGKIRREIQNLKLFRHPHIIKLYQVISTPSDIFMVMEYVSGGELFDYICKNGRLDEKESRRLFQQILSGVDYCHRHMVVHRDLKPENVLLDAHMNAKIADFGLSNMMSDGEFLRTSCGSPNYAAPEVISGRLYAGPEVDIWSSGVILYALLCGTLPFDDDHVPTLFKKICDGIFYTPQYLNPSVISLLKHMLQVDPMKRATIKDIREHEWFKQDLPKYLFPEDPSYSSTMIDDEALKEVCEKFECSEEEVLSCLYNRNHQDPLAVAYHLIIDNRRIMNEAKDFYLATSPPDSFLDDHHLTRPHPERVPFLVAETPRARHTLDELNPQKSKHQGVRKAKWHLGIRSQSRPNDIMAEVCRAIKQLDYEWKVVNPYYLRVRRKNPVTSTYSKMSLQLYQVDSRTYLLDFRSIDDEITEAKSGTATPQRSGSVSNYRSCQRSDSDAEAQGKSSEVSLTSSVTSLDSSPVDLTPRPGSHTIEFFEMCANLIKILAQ
Chain of PRKAA1 PRKAB1 PRKAG1 (human) (Q9Y478 whole entry, looked up): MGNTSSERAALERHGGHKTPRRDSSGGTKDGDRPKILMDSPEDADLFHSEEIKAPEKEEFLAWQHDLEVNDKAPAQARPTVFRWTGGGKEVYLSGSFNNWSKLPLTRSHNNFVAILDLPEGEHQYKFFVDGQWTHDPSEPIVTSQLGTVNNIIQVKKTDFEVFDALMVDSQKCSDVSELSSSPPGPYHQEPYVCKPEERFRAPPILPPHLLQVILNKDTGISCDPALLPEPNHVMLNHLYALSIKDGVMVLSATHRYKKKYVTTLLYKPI
Chain of PRKAA2 PRKAB1 PRKAG1 (human) (P54619 whole entry, looked up): as the sequence (P54619 whole entry, looked up) above
Chain of PRKAA2 PRKAB1 PRKAG1 (human) (P54646 whole entry, looked up): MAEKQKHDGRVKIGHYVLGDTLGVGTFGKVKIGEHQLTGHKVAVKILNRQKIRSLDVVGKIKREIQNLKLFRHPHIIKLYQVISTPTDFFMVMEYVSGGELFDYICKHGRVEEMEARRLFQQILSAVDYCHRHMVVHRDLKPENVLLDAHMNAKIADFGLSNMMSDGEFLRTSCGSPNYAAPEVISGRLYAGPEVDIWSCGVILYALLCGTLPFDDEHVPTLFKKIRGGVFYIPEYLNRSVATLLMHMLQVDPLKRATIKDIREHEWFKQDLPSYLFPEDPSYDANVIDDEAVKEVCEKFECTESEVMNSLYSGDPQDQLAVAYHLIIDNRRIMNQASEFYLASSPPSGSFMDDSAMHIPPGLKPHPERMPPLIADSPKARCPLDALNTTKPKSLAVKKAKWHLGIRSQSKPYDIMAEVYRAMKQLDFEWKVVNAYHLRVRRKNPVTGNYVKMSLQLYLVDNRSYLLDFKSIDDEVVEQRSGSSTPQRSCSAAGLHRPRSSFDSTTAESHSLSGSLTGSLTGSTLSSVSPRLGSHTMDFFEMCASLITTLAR
Chain of PRKAA2 PRKAB1 PRKAG1 (human) (Q9Y478 whole entry, looked up): as the sequence (Q9Y478 whole entry, looked up) above
Chain of NTRK2 (human) (Q16620 whole entry, looked up): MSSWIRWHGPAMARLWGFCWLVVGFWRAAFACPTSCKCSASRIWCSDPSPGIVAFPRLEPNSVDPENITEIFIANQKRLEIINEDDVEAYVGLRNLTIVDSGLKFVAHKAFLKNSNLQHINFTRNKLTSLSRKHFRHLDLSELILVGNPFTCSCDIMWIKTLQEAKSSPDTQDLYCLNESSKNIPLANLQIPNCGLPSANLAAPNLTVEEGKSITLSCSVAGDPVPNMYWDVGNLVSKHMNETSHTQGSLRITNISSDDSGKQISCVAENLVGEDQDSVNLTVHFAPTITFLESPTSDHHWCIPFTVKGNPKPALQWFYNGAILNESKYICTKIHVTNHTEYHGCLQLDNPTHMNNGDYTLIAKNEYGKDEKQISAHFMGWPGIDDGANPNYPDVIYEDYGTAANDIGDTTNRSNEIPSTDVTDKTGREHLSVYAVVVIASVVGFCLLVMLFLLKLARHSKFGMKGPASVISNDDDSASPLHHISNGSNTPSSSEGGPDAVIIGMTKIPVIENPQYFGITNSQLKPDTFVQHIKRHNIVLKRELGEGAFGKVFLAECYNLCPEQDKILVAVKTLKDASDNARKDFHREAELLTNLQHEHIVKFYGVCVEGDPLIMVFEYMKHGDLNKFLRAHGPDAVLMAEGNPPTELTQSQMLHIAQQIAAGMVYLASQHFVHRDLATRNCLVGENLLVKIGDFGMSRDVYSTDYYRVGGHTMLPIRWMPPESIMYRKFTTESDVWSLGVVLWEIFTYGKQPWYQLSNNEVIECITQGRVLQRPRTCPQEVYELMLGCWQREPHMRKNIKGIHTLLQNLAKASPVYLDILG

Question: `COC(=O)[C@]1(O)C[C@@H]2O[C@@]1(C)n1c3ccccc3c3c4c(c5c6ccccc6n2c5c31)C(=O)NC4` was tested. Which residual activity (EPHA1 (human)) did it give?
Answer: 0%

Question: What about the residual activity (PAK6 (human); compound 1.0 µM) of the same compound?
Answer: 0%

Question: What about the residual activity (PAK6 (human); compound 10.0 µM) of the same compound?
Answer: -1%

Question: And the residual activity (PRKX (human))?
Answer: 0%

Question: And the residual activity (MARK2 (human))?
Answer: -2%

Question: What about the residual activity (NTRK2 (human); compound 1.0 µM) of the same compound?
Answer: 0%

Question: And the residual activity (NTRK2 (human); compound 10.0 µM)?
Answer: 0%

Question: What about the residual activity (RPS6KA4 KD1 KD2 (human); compound 1.0 µM) of the same compound?
Answer: -1%

Question: And the residual activity (RPS6KA4 KD1 KD2 (human); compound 10.0 µM)?
Answer: 0%

Question: What about the residual activity (RPS6KA5 KD1 KD2 (human)) of the same compound?
Answer: 0%

Question: And the residual activity (STK24 (human))?
Answer: 0%

Question: What about the residual activity (GCK (human)) of the same compound?
Answer: 0%

Question: What about the residual activity (MKNK2 (human); compound 1.0 µM) of the same compound?
Answer: 0%

Question: What about the residual activity (MKNK2 (human); compound 10.0 µM) of the same compound?
Answer: 0%

Question: And the residual activity (PAK4 (human))?
Answer: 0%

Question: And the residual activity (INSR (human))?
Answer: 0%

Question: What about the residual activity [1] of the same compound?
Answer: 0%

Question: And the residual activity (RPS6KA6 KD1 KD2 (human))?
Answer: -2%

Question: What about the residual activity (CHEK1 (human)) of the same compound?
Answer: -1%

Question: What about the residual activity (FER (human)) of the same compound?
Answer: 0%

Question: What about the residual activity (FLT1 (human); compound 1.0 µM) of the same compound?
Answer: 0%

Question: And the residual activity (FLT1 (human); compound 10.0 µM)?
Answer: 0%

Question: And the residual activity (FYN (human))?
Answer: 0%

Question: What about the residual activity ([2]; compound 1.0 µM) of the same compound?
Answer: -5%

Question: What about the residual activity ([2]; compound 10.0 µM) of the same compound?
Answer: 1%

Question: And the residual activity (CDK1 CCNB1 (human))?
Answer: -1%

Question: And the residual activity (TSSK1B (human); compound 1.0 µM)?
Answer: -1%

Question: And the residual activity (TSSK1B (human); compound 10.0 µM)?
Answer: 0%

Question: And the residual activity ([3]; compound 1.0 µM)?
Answer: -1%

Question: What about the residual activity ([3]; compound 10.0 µM) of the same compound?
Answer: 0%

Question: And the residual activity (MAPK1 (human))?
Answer: -3%

Question: And the residual activity (MELK (human))?
Answer: -1%

Question: And the residual activity (MAPK10 (human); compound 1.0 µM)?
Answer: -3%

Question: And the residual activity (MAPK10 (human); compound 10.0 µM)?
Answer: -1%

Question: What about the residual activity (MAP3K7 (human); compound 1.0 µM) of the same compound?
Answer: -1%

Question: And the residual activity (MAP3K7 (human); compound 10.0 µM)?
Answer: -5%

Question: What about the residual activity (PRKD2 (human)) of the same compound?
Answer: 0%

Question: What about the residual activity (PDPK1 (human); compound 1.0 µM) of the same compound?
Answer: -1%

Question: And the residual activity (PDPK1 (human); compound 10.0 µM)?
Answer: 0%

Question: What about the residual activity (FGR (human)) of the same compound?
Answer: -1%

Question: What about the residual activity (DYRK2 (human)) of the same compound?
Answer: -4%

Question: What about the residual activity (MTOR FKBP1A (human); compound 1.0 µM) of the same compound?
Answer: 89%

Question: What about the residual activity (MTOR FKBP1A (human); compound 10.0 µM) of the same compound?
Answer: 79%

Question: And the residual activity (SIK1 (human); compound 1.0 µM)?
Answer: 0%

Question: What about the residual activity (SIK1 (human); compound 10.0 µM) of the same compound?
Answer: 0%

Question: What about the residual activity (ULK2 (human)) of the same compound?
Answer: 0%

Question: And the residual activity (MAP3K9 (human))?
Answer: 0%

Question: What about the residual activity (CDK2 CCNA2 (human); compound 1.0 µM) of the same compound?
Answer: 1%

Question: And the residual activity (CDK2 CCNA2 (human); compound 10.0 µM)?
Answer: 0%
